Experimental data: article PMC3792642 (Acta Crystallographica Section D: Biological Crystallography, 2013)
Peptide text beside a SMILES is read from it.

Test system: MtbDsbA catalytic Cys89 to Ala mutant
Assay type: binding, Mycobacterium tuberculosis H37Rv
Details: ITC, under the conditions tested

## CC(=O)N[C@@H](Cc1ccc(O)cc1)C(=O)N[C@H](C(=O)N1CCC[C@H]1C(=O)N[C@@H](CO)C(=O)N[C@@H](CS)C(=O)N[C@@H](CC(N)=O)C(=O)N[C@H](C(N)=O)C(C)C)C(C)C [YVPSCNV] (Ac-YVPSCNV-NH2)
  Binding of VKOR peptide to the MtbDsbA catalytic Cys89 to Ala mutant: abolished binding
